Laboratory results: US20260132165A1, “MODIFIED NUCLEOSIDE ANALOGUE AND USE THEREOF, AND NUCLEOSIDE ANALOGUE-CONTAINING DOUBLE-STRANDED OLIGONUCLEOTIDE AND USE THEREOF” (RIGERNA THERAPEUTICS (BEIJING) CO., LTD., priority 2023, published 2026)
Values joined by “and” are separate entries in the source; they are usually repeats but may differ in a detail not shown here. Equal values may be shown once. Strand notation (5' to 3'): a small letter for the sugar, then the base; units joined by * are phosphorothioate-linked, units joined directly phosphodiester-linked; [ ] holds rarer units or linkages, { } end groups; capitals alone tell only the bases. [NM031] = nucleoside analogue NM031 of the disclosure, C16 lipid conjugate (uridine-based); {VP} = (thio)vinylphosphonate on the antisense 5' nucleotide, as listed; m = 2'-O-methyl; f = 2'-fluoro

Columns and labels:
target gene SOD1 [1] = assay: Test Example 5: inhibitory activity of lipid conjugated siRNA sequences on SOD1 by intrathecal administration to rats; format: in vivo, SD rats; parameters: key to Lumbar segmen Mean value of inhibition rate / Cortex Mean value of inhibition rate / Thoracic segment Mean value of inhibition rate / Cervical segment Mean value of inhibition rate / Cerebellum Mean value of inhibition rate / Hippocampus Mean value of inhibition rate: inhibition rate of SOD1 mRNA, calculated by the ΔΔCt method; details: D7
Procedure: 6-8 Week-old SD rats were randomly grouped by body weight. Rats in each group were administered with siRNA by intrathecal administration, with an administration dose of 900 μg per rat. Injection was administered from rat spinal cord L5-L6, with an administration volume of 40 μL. Needle was retained for 2 min after completion of injection, and then slowly withdrawn. PBS control group was administered with the same volume of siRNA conjugate-free PBS solution. The day of administration was recorded as 0 day (D0), and the rats were sacrificed at observation point after administration. Different segments of spinal cord and different regions of brain were respectively taken and stored in the RNAlater.
(§1) RNA extraction: the above tissue samples were taken out from the RNAlater, and smashed for 60 s in Tissuelyser type II full-automatic tissue homogenizer, and total RNAs of various tissue samples were extracted using the full-automatic nucleic acid extraction instrument and the nucleic acid extraction kit from Zhejiang Hanwei Science and Technology Co. Ltd. according to methods described in instructions.
(§2) Reverse transcription reaction: 1 μg of the extracted total RNAs of the tissue samples were taken, and configured into 20 μL of reverse transcription system according to a method described in kit instructions by using a reverse transcription kit (Reverse Transcription System, A3500) from Promega Corporation and selecting Oligo (dT)15 reverse transcription primers, and the reverse transcription reaction was completed. After the reaction was ended, 80 μL of RNase-Free water was added into the reverse transcription system to provide cDNA solution for Real-time PCR detection.
(§3) Real-time PCR detection: 20 μL of Real-time PCR reaction system per PCR detection well was configured according to a method described in kit instructions using SYBR™ Select Master Mix (Catalog number: 4472908) reagent from ABI company. Each detection system contained 5 μL of cDNA template obtained from the above reverse transcription reaction, 10 μL of SYBR™ Select Master Mix, 0.5 μL of 10 μM upstream primers, 0.5 μL of 10 μM downstream primers, and 4 μL of RNase-Free H2O. The configured reaction system was subjected to Real-time PCR amplification on ABI StepOnePlus PCR instrument by a three-step method, wherein an amplification procedure was pre-denaturation at 95° C. for 10 min, then denaturation at 95° C. for 30 s, annealing at 60° C. for 30 s, and extension at 72° C. for 30 s; and processes of denaturation, annealing, and extension were repeated for 40 cycles. Gene expression differences were calculated by the ΔΔCt method after completion of the procedure.
In the real-time fluorescence quantitative PCR method, relative quantitative calculation of remaining expression level and inhibition rate of gene mRNA of interest in various test groups was performed by the ΔΔCt method, and the calculation method is as follows:
The present example evaluated, by an evaluation method for inhibitory activity on a target gene by intrathecal administration to rats, the inhibitory activity of siRNA sequence RZ899060 with the sense strand with the NM031 conjugation at Position 4 and vector-free siRNA sequence RZ899056, and Uhd conjugated siRNA reference sequence RZ899055 on the target gene SOD1 of interest in spinal cord and brain of rats.
6-8 Week-old SD rats were randomly grouped by body weight, 5 per group, 4 groups in total. Rats in each group were dosed with the above siRNA conjugates by intrathecal administration, with an administration dose of 900 μg per rat, and an administration volume of 40 μL. PBS control group was administered with the same volume of siRNA conjugate-free PBS solution. The day of administration was recorded as 0 day (D0), and the rats were sacrificed on D7 after administration. […]

target gene SOD1 [2] = assay: Test Example 3: inhibitory activity of lipid conjugated siRNA sequences on SOD1 by lateral ventricle administration to mice; format: in vivo, C57BL/6j mice; details: 200 μg per mouse, D5
Procedure: 6-8 Week-old C57BL/6j mice were randomly grouped by body weight. Mice in each group were administered with siRNA by lateral ventricle administration, with an administration dose per mouse depending on a specific test. Taking Bregma in mouse brain as point 0 (origin), coordinates of right ventricle were found using the cerebral stereotaxic apparatus and position was marked on surface of skull (position of lateral ventricle was AP (anteroposterior, bregma anterior and posterior): −0.58 mm, ML (mediolateral, left and right of middle raphe): −1.2 mm, DV (dorsoventral, up and down cerebral dura mater plane): −2.2 mm). A dental electric drill was used to drill in the skull above a position of interest, and then medicament was injected into the lateral ventricle by a micro-dosing pump, wherein a total injection volume was 5 μL, and injection duration was 10 min. Needle was retained for 5 min after completion of injection, and then slowly withdrawn. Afterwards, needle hole was sealed with biomedical glue, and then head skin was adhered. After animals woke up, the animals were returned back to animal house and further fed. PBS control group was administered with the same volume of siRNA-free PBS solution. The day of administration was recorded as 0 day (D0), and the mice were sacrificed at observation point after the administration. Different parts of brain region were respectively taken and stored in the RNAlater.
as §1, §2, §3
In the real-time fluorescence quantitative PCR method, relative quantitative calculation of remaining expression level and inhibition rate of gene mRNA of interest in various test groups was performed by the ΔΔCt method, and the calculation method is as follows: […]

Question: With “RZ899060: siRNA sequence with the sense strand with the NM031 conjugation at Position 4; SEQ ID NO: 3 / 22 (sense mU*mU*mU[NM031]mAmAfUfCfCmUmCmAmCmUmCmUmAmAmA; antisense {VP}-mU*fU*mUmAmGfAmGmUmGmAmGmGmAfUmUfAmAmAmA*mU*mG)” as the substance, how does the “Cerebellum Mean value of inhibition rate” value (target gene SOD1 [1]; cerebellum, intrathecal, 900 μg per rat) read?
Answer: The value was 55.10.

Question: What about the “Cortex Mean value of inhibition rate” value (target gene SOD1 [1]; cerebral cortex, intrathecal, 900 μg per rat) of the same substance?
Answer: Its value is 43.00.

Question: What about the “activity compared with the reference sequence RZ899055” value (target gene SOD1 [1]; hippocampus and cortex in the brain region, intrathecal 900 μg per rat) of the same substance?
Answer: Its value is “substantially comparable”.

Question: What about the “Hippocampus Mean value of inhibition rate” value (target gene SOD1 [1]; hippocampus, intrathecal, 900 μg per rat) of the same substance?
Answer: The value was 47.77.

Question: What about the “activity compared with the Uhd conjugated reference sequence RZ899055” value (target gene SOD1 [1]; lumbar segment, intrathecal 900 μg per rat) of the same substance?
Answer: The value was “substantially comparable”.

Question: And the “inhibitory activity in the spinal cord segments” value (target gene SOD1 [1]; lumbar, thoracic and cervical segment, intrathecal 900 μg per rat)?
Answer: Its value is no less than 80%.

Question: And the “Cervical segment Mean value of inhibition rate” value (target gene SOD1 [1]; spinal cord cervical segment, intrathecal, 900 μg per rat)?
Answer: The value was 83.37.

Question: And the “Lumbar segmen Mean value of inhibition rate” value (target gene SOD1 [1]; spinal cord lumbar segment, intrathecal, 900 μg per rat)?
Answer: The value was 84.24.

Question: What about the “Thoracic segment Mean value of inhibition rate” value (target gene SOD1 [1]; spinal cord thoracic segment, intrathecal, 900 μg per rat) of the same substance?
Answer: Its value is 94.54.

Question: And the “activity compared with the Uhd conjugated reference sequence RZ899055” value (target gene SOD1 [1]; thoracic segment and cervical segment of spinal cord, intrathecal 900 μg per rat)?
Answer: Its value is “superior”.

Question: And the “Cerebellum Mean value of inhibition rate %” value (target gene SOD1 [2]; cerebellum)?
Answer: The value was 56.11%.

Question: What about the “Cortex Mean value of inhibition rate %” value (target gene SOD1 [2]; cortex) of the same substance?
Answer: Its value is 79.05%.

Question: And the “Hippocampus Mean value of inhibition rate %” value (target gene SOD1 [2]; hippocampus)?
Answer: The value was ≥ 90% and 90.98%.
